From US8859582B2, “Bicyclic heterocyclic compounds as protein tyrosine kinase inhibitors” (Astex Therapeutics Limited, priority 2007, dated 2014)

Test system: LP-1 cell line
Experiment: Cell-based pERK ELISA, LP-1 cells
Settings: LP-1 human multiple myeloma cells, FGF-1/Heparin stimulation; read-out: IC50 against the LP-1 cell line (pERK ELISA)
Description: Enzyme buffer A: 8 mM MOPS, pH 7.0, 0.2 mM EDTA, 10 mM MgAcetate Enzyme buffer B: 8 mM MOPS, pH 7.0, 0.2 mM EDTA, 2.5 mM MnCl2, 10 mM MgAcetate Enzyme buffer C: 8 mM Mops, pH 7.0, 0.2 mM EDTA, 10 mM MnCl2, 10 mM MgAcetate. Cell-Based pERK ELISA Method
LP-1 or JIM-1 multiple myeloma cells were seeded in 96 well plates at 1×10^6 cells/ml in 200 μl per well in serum free media. HUVEC cells were seeded at 2.5×10^5 cells/ml and allowed to recover for 24 h prior to transfer to serum free media. Cells were incubated for 16 h at 37° C. prior to the addition of a test compound for 30 minutes. Test compounds were administered at a 0.1% final DMSO concentration. Following this 30 minute incubation a FGF-1/Heparin (FGF-1 at 100 ng/ml final and Heparin at 100 ug/ml) mixture or VEGF^165 (100 ug/ml) was added to each of the wells for a further 5 minutes. The media was removed and 50 ul ERK ELISA lysis buffer (R and D Systems DuoSet ELISA for pERK and Total ERK #DYC-1940E, DYC-1018E) added. ELISA plates and standards were prepared according to the standard DuoSet protocols and the relative amounts of pERK to total ERK in each sample calculated according to the standard curve.
In particular, compounds of the invention were tested against the LP-1 cell line (DSMZ no.: ACC 41) derived from human multiple myeloma.

IC50: < 1000 nM
Structure (SMILES): O=C(c1ccn2c(-c3cccc(Nc4nncs4)c3)cnc2c1)N1CCC1 [Example 2, Azetidin-1-yl-{3-[3-([1,3,4]thiadiazol-2-ylamino)-phenyl]-imidazo[1,2-a]pyridine-7-yl}-methanone]
